PMC11094793, “Discovery of LLC0424 as a Potent and Selective in Vivo NSD2 PROTAC Degrader” (Journal of Medicinal Chemistry, 2024)

Molecular target: T1, NSD2 (Homo sapiens, UniProt O96028, E1099K)
T1 construct: from tissue; host or cells: SEM subcutaneous xenograft tumours in CB17 SCID mice
T1 sequence (O96028 1-1365 E1099K): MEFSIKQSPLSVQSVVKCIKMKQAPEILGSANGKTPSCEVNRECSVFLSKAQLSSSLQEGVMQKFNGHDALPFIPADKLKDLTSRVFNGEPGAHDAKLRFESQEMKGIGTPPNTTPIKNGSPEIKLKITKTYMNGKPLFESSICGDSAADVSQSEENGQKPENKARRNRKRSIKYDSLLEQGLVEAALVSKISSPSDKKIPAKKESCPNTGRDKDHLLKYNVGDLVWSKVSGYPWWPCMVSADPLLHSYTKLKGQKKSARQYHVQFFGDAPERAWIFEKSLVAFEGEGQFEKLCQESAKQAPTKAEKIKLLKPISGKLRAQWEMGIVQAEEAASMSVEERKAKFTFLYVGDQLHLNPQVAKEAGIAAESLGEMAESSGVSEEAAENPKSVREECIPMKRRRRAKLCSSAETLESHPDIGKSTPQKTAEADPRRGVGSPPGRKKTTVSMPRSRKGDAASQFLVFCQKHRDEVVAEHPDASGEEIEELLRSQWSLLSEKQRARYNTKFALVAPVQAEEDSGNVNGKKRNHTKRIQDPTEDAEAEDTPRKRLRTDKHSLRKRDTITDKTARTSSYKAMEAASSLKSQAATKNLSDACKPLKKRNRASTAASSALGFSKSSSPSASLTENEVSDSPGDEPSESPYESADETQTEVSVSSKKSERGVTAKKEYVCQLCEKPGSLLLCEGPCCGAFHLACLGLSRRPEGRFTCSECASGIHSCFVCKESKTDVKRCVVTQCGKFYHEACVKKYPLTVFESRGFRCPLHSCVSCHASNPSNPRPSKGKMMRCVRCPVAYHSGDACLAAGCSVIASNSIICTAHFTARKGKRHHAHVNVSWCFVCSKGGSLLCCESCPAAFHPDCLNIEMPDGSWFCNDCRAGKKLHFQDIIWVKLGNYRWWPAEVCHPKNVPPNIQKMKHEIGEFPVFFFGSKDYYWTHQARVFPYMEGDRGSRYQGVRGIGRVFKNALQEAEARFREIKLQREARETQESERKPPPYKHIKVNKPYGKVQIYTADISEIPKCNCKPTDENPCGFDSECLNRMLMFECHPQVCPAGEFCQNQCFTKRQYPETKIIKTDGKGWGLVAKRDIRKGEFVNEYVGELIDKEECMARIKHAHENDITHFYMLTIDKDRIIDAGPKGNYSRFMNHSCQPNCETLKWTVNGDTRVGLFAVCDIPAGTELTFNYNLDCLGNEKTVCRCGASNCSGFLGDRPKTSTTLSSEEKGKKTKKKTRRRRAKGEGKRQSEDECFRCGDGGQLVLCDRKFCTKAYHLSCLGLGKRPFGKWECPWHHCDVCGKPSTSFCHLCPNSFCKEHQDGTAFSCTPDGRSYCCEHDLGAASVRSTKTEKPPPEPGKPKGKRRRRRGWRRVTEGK
Assay: Pharmacodynamic assessment in SEM xenograft model (IHC, Western blot)
Format: in vivo, mice
Conditions: 60 mg/kg iv, 5 consecutive days, versus vehicle
Description: We finally performed pharmacodynamic assessment of LLC0424 in both the SEM and 22RV1 xenograft model. Based on the solubility of LLC0424 and the tolerance of the mice, we chose 60 mg/kg as the dosage for the pharmacodynamic study. LLC0424 was administrated by intravenous (iv) or intraperitoneal (ip) injection at a dose of 60 mg/kg for 5 consecutive days. The tumor tissues were harvested at day 5 and subjected to histology and Western blot analysis (Figure 7A, and SI, Figure S6A).
First, 6–8 weeks old male CB17 severe combined immunodeficiency (SCID) mice were procured from the University of Michigan breeding colony. Subcutaneous tumors were established at both sides of the dorsal flank of mice. Tumors were measured at least biweekly using digital calipers following the formula (π/6) (L × W2), where L is length and W is width of the tumor. At the end of the studies, mice were sacrificed and tumors extracted. For each tumor, a part is […] followed by embedding in paraffin to make tissue blocks. The blocks were sectioned at […] for immunohistochemistry analysis. Another part is made into tissue lysates for Western blotting analysis. The University of Michigan Institutional Animal Care and Use Committee (IACUC) approved all in vivo studies. […]

O=C1CCC(N2C(=O)c3ccc(N4CCC(NC(=O)c5ccc(NC(=O)c6ccc(CN(C(=O)c7ccc8c(c7)OCC(=O)N8)C7CC7)cc6)cc5)CC4)cc3C2=O)C(=O)N1 (stereo not shown) [compound 10l, N-Cyclopropyl-N-(4-((4-((1-(2-(2,6-dioxopiperidin-3-yl)-1,3-dioxoisoindolin-5-yl)piperidin-4-yl)carbamoyl)phenyl)carbamoyl)benzyl)-3-oxo-3,4-dihydro-2H-benzo[b][1,4]oxazine-7-carboxamide]
NSD2 level in tumor tissue: significantly downregulated
